As usually defined, the IC50 is the point on the concentration scale where inhibition reaches its midpoint.

The results in this text go back to patent publication US20230089867A1, “CYCLIC PENTAMER COMPOUNDS AS PROPROTEIN CONVERTASE SUBTILISIN/KEXIN TYPE 9 (PCSK9) INHIBITORS FOR THE TREATMENT OF METABOLIC DISORDER” (Novartis AG, priority 2018, published 2023).

The target of this assay is human PCSK9 (Homo sapiens, UniProt Q8NBP7). Nature of the assay: PCSK9 ligand binding TR-FRET assay (interference with binding of human PCSK9 to human LDLR). Particulars: for Max % inhibition: PCSK9 FRET assay, efficacy (Amax), 100% = 1 uM unlabeled human PCSK9, 0% = DMSO. As to the method:
The PCSK9 binding of the compounds of the disclosure were measured using a time resolved fluorescence resonance energy transfer (TR-FRET) assay. This time resolved fluorescence resonance energy transfer (TR-FRET) assay measures the ability of a compound of the present disclosure to interfere with the binding of human PCSK9 to human LDLR, providing measures of both potency (IC50) and efficacy (Amax).
These solutions were pipetted into columns 1 and 11 of the compound plate. Threefold serial dilutions were generated in columns 2-10 and 12-20 of the compound plate by transferring 10 uL into 20 uL of DMSO. Columns 21 and 22 of the compound plate were negative controls containing DMSO alone.
An intermediate plate was generated in a Greiner V bottom plate by transferring 8 uL from each well of the master plate into a corresponding well containing 92 uL of assay buffer and mixing thoroughly.
A Proxi plate-low volume assay plate was used for the assay. […] For the positive control wells in columns 23 and 24 of the plate, 5 uL of unlabeled human PCSK9 was added at 4 uM in assay buffer containing 8% DMSO. Following a 30 minute incubation, 5 uL of 4 nM Human LDLR extracellular domain-Europium Kryptate was added and the mixture was incubated for an additional 2 hours.
The FRET ratio (FRET/Europium) was used for calculations.
Data is expressed as percent inhibition: (value−0%)/(100%−0%).
Background: Time-resolved FRET reads energy transfer from a long-lived donor to a nearby acceptor.

Where [1] appears, read: TR-FRET, human PCSK9 Alexa Fluor 647 / human LDLR extracellular domain-Europium Kryptate, read-out: PCSK9 FRET Assay IC50.

Structures are written as SMILES. Like-named read-outs stand apart in the source and are kept apart here.

As for `COC[C@@H]1NC(=O)[C@H](C)N(Cc2ccc(Cl)cc2Oc2ccc(-c3cncc(C4CCC(NCCF)CC4)c3)cc2)C(=O)C[C@@H](Cc2ccccc2)C(=O)N(C)[C@@H](C)CNC(=O)C[C@H](Cc2ccc(Cl)cc2)N(C)C1=O` (stereo partly shown), the IC50 stood at 2.7 nM.

`COC[C@@H]1NC(=O)[C@H](C)N(Cc2ccc(Cl)cc2Oc2ccc(-c3cncc(C4CCN(CCF)CC4)c3)cc2)C(=O)C[C@@H](Cc2ccccc2)C(=O)N(C)[C@@H](C)CNC(=O)C[C@H](Cc2ccc(Cl)cc2)N(C)C1=O` registered an IC50 of 3.2 nM.

As to `COC[C@@H]1NC(=O)C(C)N(Cc2ccc(Cl)cc2Oc2ccc(-c3cnc(CN(C)C)n3C)cc2)C(=O)C[C@@H](Cc2ccccc2)C(=O)N(C)[C@H]2CCCC[C@@H]2NC(=O)C[C@H](Cc2ccc(Cl)cc2)N(C)C1=O` (single isomer, unassigned) [Compound 58], the Max % inhibition is 103.43%. In addition, the IC50 under setting [1] was determined as 9.3 nM.

As for `COC[C@@H]1NC(=O)[C@H](CCN)N(Cc2ccc(Cl)cc2Oc2ccc(-c3cnc(CN(C)C)n3C)cc2)C(=O)C[C@@H](Cc2ccccc2)C(=O)N(C)[C@H]2CCCC[C@@H]2NC(=O)C[C@H](Cc2ccc(Cl)cc2)N(C)C1=O` (single isomer, unassigned) [Compound 109], the Max % inhibition worked out at 76.18%. The IC50 under setting [1] worked out at 7.6 nM.

Turning to `COC[C@@H]1NC(=O)C(CCN)N(Cc2ccc(Cl)cc2Oc2ccc(-c3cnc(CN(C)C)n3C)cc2)C(=O)C[C@@H](Cc2ccccc2)C(=O)N(C)[C@H]2CCCC[C@@H]2NC(=O)C[C@H](Cc2ccc(Cl)cc2)N(C)C1=O` (single isomer, unassigned) [Compound 204], the Max % inhibition worked out at 83.07%. Under setting [1], the IC50 was determined as 286 nM.

For `COC[C@@H]1NC(=O)[C@H](C)N(Cc2ccc(Cl)cc2Oc2ccc(-c3cnc(CN4CCCC4)n3C)cc2)C(=O)C[C@@H](Cc2ccccc2)C(=O)N(C)C2CCOCC2NC(=O)C[C@H](Cc2ccc(Cl)cc2)N(C)C1=O` (single isomer, unassigned) [Compound 274], the Max % inhibition is recorded as 93.20%. Also, the IC50 under setting [1] came out at 1.4 nM.

With `COC[C@@H]1NC(=O)[C@H](C)N(Cc2ccc(Oc3ccc(-c4cnc(CN(C)C)n4C)cc3)cc2F)C(=O)C[C@@H](Cc2ccccc2)C(=O)N(C)C2CCCCC2NC(=O)C[C@H](Cc2ccc(Cl)cc2)N(C)C1=O` (stereo in doubt) [Compound 15, (4S,7S,10S,14R,16aS,20aS)-14-benzyl-4-(4-chlorobenzyl)-11-(4-(4-(2-((dimethylamino)methyl)-1-methyl-1H-imidazol-5-yl)phenoxy)-2-fluorobenzyl)-7-(methoxymethyl)-5,10,16-trimethylhexadecahydrobenzo[l][1,4,7,11,14]pentaazacyclooctadecine-2,6,9,12,15(3H)-pentaone], the Max % inhibition worked out at 48.77%. The IC50 under setting [1] was determined as 331 nM.

Turning to `COC[C@@H]1NC(=O)[C@H](CC(=O)N2CC(C)(O)C2)N(Cc2ccc(Cl)cc2Oc2ccc(-c3cnc(CN(C)C)n3C)cc2)C(=O)C[C@@H](Cc2ccccc2)C(=O)N(C)C2CCCCC2NC(=O)C[C@H](Cc2ccc(Cl)cc2)N(C)C1=O` (stereo in doubt) [Compound 52, (4S,7S,10S,14R,16aS,20aS)-14-benzyl-11-(4-chloro-2-(4-(2-((dimethylamino)methyl)-1-methyl-1H-imidazol-5-yl)phenoxy)benzyl)-4-(4-chlorobenzyl)-10-(2-(3-hydroxy-3-methylazetidin-1-yl)-2-oxoethyl)-7-(methoxymethyl)-5,16-dimethylhexadecahydrobenzo[l][1,4,7,11,14]pentaazacyclooctadecine-2,6,9,12,15(3H)-pentaone], the Max % inhibition amounted to 104.32%. The IC50 under setting [1] stood at 1.5 nM.

For `COC[C@@H]1NC(=O)[C@H](C)N(Cc2ccc(Cl)cc2Oc2ccc(-c3cnc(C(C)N4CCCC4)n3C)cc2)C(=O)C[C@@H](C)C(=O)N(C)[C@@H](C)CNC(=O)C[C@H](Cc2ccc(Cl)cc2)N(C)C1=O` (stereo in doubt) [Compound 103, (2S,5S,8S,13S,16R)-1-(4-chloro-2-(4-(1-methyl-2-((S)-1-(pyrrolidin-1-yl)ethyl)-1H-imidazol-5-yl)phenoxy)benzyl)-8-(4-chlorobenzyl)-5-(methoxymethyl)-2,7,13,14,16-pentamethyl-1,4,7,11,14-pentaazacyclooctadecane-3,6,10,15,18-pentaone], the Max % inhibition amounted to 106.00%. Also, the IC50 under setting [1] amounted to 10.1 nM.

With `COC[C@@H]1NC(=O)[C@H](CC(=O)N2CC3(COC3)C2)N(Cc2ccc(Cl)cc2Oc2ccc(-c3cnc(CN(C)C)n3C)cc2)C(=O)C[C@@H](Cc2ccccc2)C(=O)N(C)C2CCCCC2NC(=O)C[C@H](Cc2ccc(Cl)cc2)N(C)C1=O` (stereo in doubt) [Compound 106, (4S,7S,10S,14R,16aS,20aS)-14-benzyl-11-(4-chloro-2-(4-(2-((dimethylamino)methyl)-1-methyl-1H-imidazol-5-yl)phenoxy)benzyl)-4-(4-chlorobenzyl)-7-(methoxymethyl)-5,16-dimethyl-10-(2-oxo-2-(2-oxa-6-azaspiro[3.3]heptan-6-yl)ethyl)hexadecahydrobenzo[l][1,4,7,11,14]pentaazacyclooctadecine-2,6,9,12,15(3H)-pentaone], the Max % inhibition is 106.45%. Besides, the IC50 under setting [1] turned out to be 2 nM.

As for `C[C@H]1CNC(=O)C[C@H](Cc2ccc(Cl)cc2)N(C)C(=O)[C@H](CO)NC(=O)[C@H](C)N(Cc2ccccc2OCC(=O)N2Cc3cccnc3C2)C(=O)C[C@@H](Cc2ccccc2)C(=O)N1C` (stereo in doubt) [Compound 143, (2S,5S,8S,13S,16R)-16-benzyl-8-(4-chlorobenzyl)-5-(hydroxymethyl)-2,7,13,14-tetramethyl-1-(2-(2-oxo-2-(5H-pyrrolo[3,4-b]pyridin-6(7H)-yl)ethoxy)benzyl)-1,4,7,11,14-pentaazacyclooctadecane-3,6,10,15,18-pentaone], the Max % inhibition was determined as 49.36%. Also, the IC50 under setting [1] turned out to be 774 nM.

Take `COC[C@@H]1NC(=O)[C@H](C)N(Cc2ccc(Cl)cc2Oc2ccc(-c3cnc(CN(C)C)n3C)cc2)C(=O)C[C@H](Cn2cccn2)C(=O)N(C)[C@H]2CCCC[C@@H]2NC(=O)C[C@H](Cc2ccc(Cl)cc2)N(C)C1=O` [Compound 2, (4S,7S,10S,14R,16aS,20aS)-14-((1H-pyrazol-1-yl)methyl)-11-(4-chloro-2-(4-(2-((dimethylamino)methyl)-1-methyl-1H-imidazol-5-yl)phenoxy)benzyl)-4-(4-chlorobenzyl)-7-(methoxymethyl)-5,10,16-trimethylhexadecahydrobenzo[l][1,4,7,11,14]pentaazacyclooctadecine-2,6,9,12,15(3H)-pentaone]: the Max % inhibition is 95.16%. The IC50 under setting [1] was found to be 172 nM.

Regarding `CNCC[C@H]1C(=O)N[C@@H](COC)C(=O)N(C)[C@@H](Cc2ccc(Cl)cc2)CC(=O)N[C@H]2CCCC[C@@H]2N(C)C(=O)[C@H](Cc2ccccc2)CC(=O)N1Cc1ccc(Cl)cc1Oc1ccc(-c2cnc(CN(C)C)n2C)cc1` [Compound 3, (4S,7S,10S,14R,16aS,20aS)-14-benzyl-11-(4-chloro-2-(4-(2-((dimethylamino)methyl)-1-methyl-1H-imidazol-5-yl)phenoxy)benzyl)-4-(4-chlorobenzyl)-7-(methoxymethyl)-5,16-dimethyl-10-(2-(methylamino)ethyl)hexadecahydrobenzo[l][1,4,7,11,14]pentaazacyclooctadecine-2,6,9,12,15(3H)-pentaone], the Max % inhibition was determined as 95.68%. For the same compound, the IC50 under setting [1] is 1.3 nM.

As for `COC[C@@H]1NC(=O)[C@H](CCCNC(=O)OC(C)(C)C)N(Cc2ccc(Cl)cc2Oc2ccc(-c3cnc(CN(C)C)n3C)cc2)C(=O)C[C@@H](Cc2ccccc2)C(=O)N(C)[C@@H](C)CNC(=O)C[C@H](Cc2ccc(Cl)cc2)N(C)C1=O` [Compound 4, tert-butyl (3-((2S,5S,8S,13S,16R)-16-benzyl-1-(4-chloro-2-(4-(2-((dimethylamino)methyl)-1-methyl-1H-imidazol-5-yl)phenoxy)benzyl)-8-(4-chlorobenzyl)-5-(methoxymethyl)-7,13,14-trimethyl-3,6,10,15,18-pentaoxo-1,4,7,11,14-pentaazacyclooctadecan-2-yl)propyl)carbamate], the Max % inhibition came to 97.50%. For the same compound, the IC50 under setting [1] amounted to 2.9 nM.

For `COC[C@@H]1NC(=O)[C@H](C)N(Cc2ccc(Cl)cc2Oc2ccc(-c3cnc(CN(C)C)n3C)cc2)C(=O)C[C@@H](C)C(=O)N(C)[C@@H](CC2CC2)CNC(=O)C[C@H](Cc2ccc(Cl)cc2)N(C)C1=O` [Compound 5, (2S,5S,8S,13S,16R)-1-(4-chloro-2-(4-(2-((dimethylamino)methyl)-1-methyl-1H-imidazol-5-yl)phenoxy)benzyl)-8-(4-chlorobenzyl)-13-(cyclopropylmethyl)-5-(methoxymethyl)-2,7,14,16-tetramethyl-1,4,7,11,14-pentaazacyclooctadecane-3,6,10,15,18-pentaone], the Max % inhibition stood at 83.48%. Besides, the IC50 under setting [1] worked out at 9.6 nM.
